The data set in a line: Half life in mouse plasma. Type of data set: ADME, cell-free.

For one compound, half-life results are on record in ChEMBL document CHEMBL5230105, “Vitamin D and its analogs as anticancer and anti-inflammatory agents” (Eur J Med Chem, 2020).

As a reminder, the half-life is the time in which the quantity being followed falls by half. Read a low half-life as rapid decline. Take `C[C@H](CC#CC(C)(C)O)[C@H]1CC[C@@H]2/C(=C/C=C3C[C@@H](O)C[C@H](O)C3)CCC[C@@]21C` [INECALCITOL]: the half-life stood at 18.3 min.
